Measured values taken from patent publication US20160038468A1 (priority 2013, published 2016).
Like-named read-outs stand apart in the source and are kept apart here.

Columns and labels:
Format in all cases: cell-based
Peptoniphilus harei = test: Agar dilution MIC (CLSI), Peptoniphilus harei vaginal isolates; conditions: for Number of strains with indicated MIC: 23 samples; for MIC: read-out: Minimal Inhibitory Concentration (MIC)
M. curtisii = test: Agar dilution MIC (CLSI), M. curtisii vaginal isolates; conditions: for Number of strains with indicated MIC: 14 samples
Atopobium vaginae = test: Agar dilution MIC (CLSI), Atopobium vaginae vaginal isolates; conditions: for Number of strains with indicated MIC: 62 samples
Mobiluncus all species = test: Agar dilution MIC (CLSI), Mobiluncus all species
Prevotella timonensis = test: Agar dilution MIC (CLSI), Prevotella timonensis vaginal isolates; conditions: for MIC: Hoylesella timonensis, read-out: Minimal Inhibitory Concentration (MIC)
[1] = Peptoniphilus harei, # tested 23
[2] = Fannyhessea vaginae, # tested 62

CO[C@H]1/C=C/O[C@@]2(C)Oc3c(C)c(O)c4c(O)c(c5c(nc6cc(C)ccn65)c4c3C2=O)NC(=O)/C(C)=C\C=C\[C@H](C)[C@H](O)[C@@H](C)[C@@H](O)[C@@H](C)[C@H](OC(C)=O)[C@@H]1C [Rifaximin]
0.00375 µg/mL: MIC (Peptoniphilus harei; Peptoniphilus harei, isolate 601311V R) | MIC50 (Atopobium vaginae; [2]) | MIC (Prevotella timonensis; isolate 301212 10)
2: Number of strains with indicated MIC (M. curtisii; MIC 0.03 μg/ml)
0.0075 µg/mL: MIC (Peptoniphilus harei; Peptoniphilus harei, isolate 426868V D) | MIC (Peptoniphilus harei; Peptoniphilus harei, isolate 601098V Q) | MIC (Peptoniphilus harei; Peptoniphilus harei, isolate 601203V 8) | MIC (Peptoniphilus harei; Peptoniphilus harei, isolate 601212V 15) | MIC (Peptoniphilus harei; Peptoniphilus harei, isolate 601248V 23) | MIC (Peptoniphilus harei; Peptoniphilus harei, isolate 601289V C) | MIC (Peptoniphilus harei; Peptoniphilus harei, isolate 601293V 21) | MIC (Peptoniphilus harei; Peptoniphilus harei, isolate 601342V F) | MIC (Peptoniphilus harei; Peptoniphilus harei, isolate 601365V 14) | MIC (Peptoniphilus harei; Peptoniphilus harei, isolate 601388V Q) | MIC (Peptoniphilus harei; Peptoniphilus harei, isolate 601399V 16) | MIC (Peptoniphilus harei; Peptoniphilus harei, isolate 601409V L) | MIC (Peptoniphilus harei; Peptoniphilus harei, isolate 601413V 16) | MIC (Peptoniphilus harei; Peptoniphilus harei, isolate 601426V D) | MIC (Peptoniphilus harei; Peptoniphilus harei, isolate 601539V 25B) | MIC50 (Peptoniphilus harei; [1]) | MIC50 (Mobiluncus all species; # tested 40) | MIC (Prevotella timonensis; isolate 601080 5) | MIC (Prevotella timonensis; isolate 601194 9B)
0.015 µg/mL: MIC (Peptoniphilus harei; Peptoniphilus harei, isolate 601259V 11) | MIC (Peptoniphilus harei; Peptoniphilus harei, isolate 601302V F1) | MIC (Peptoniphilus harei; Peptoniphilus harei, isolate 601326V F) | MIC (Peptoniphilus harei; Peptoniphilus harei, isolate 601355V D) | MIC (Peptoniphilus harei; Peptoniphilus harei, isolate 601374V F) | MIC (Peptoniphilus harei; Peptoniphilus harei, isolate 601430V 22) | MIC90 (Peptoniphilus harei; [1]) | MIC (M. curtisii; individual isolates recovered from the vagina 2009-2012, one line per isolate (id in c0/c1 of the row), read-out: Minimal Inhibitory Concentration (MIC)) | MIC90 (Atopobium vaginae; [2]) | MIC90 (Mobiluncus all species; # tested 40) | MIC (Prevotella timonensis; isolate 601088 15) | MIC (Prevotella timonensis; isolate 601093 24) | MIC (Prevotella timonensis; isolate 601097 S) | MIC (Prevotella timonensis; isolate 601098 B) | MIC (Prevotella timonensis; isolate 601157 19) | MIC (Prevotella timonensis; isolate 601170 13) | MIC (Prevotella timonensis; isolate 601175 J) | MIC (Prevotella timonensis; isolate 601178 19) | MIC (Prevotella timonensis; isolate 601214 A) | MIC (Prevotella timonensis; isolate 601226 C) | MIC (Prevotella timonensis; isolate 601234 B) | MIC (Prevotella timonensis; isolate 601245 16) | MIC (Prevotella timonensis; isolate 601252 B) | MIC (Prevotella timonensis; isolate 601255 17) | MIC (Prevotella timonensis; isolate 601266 18) | MIC (Prevotella timonensis; isolate 601278 12) | MIC (Prevotella timonensis; isolate 601281 22) | MIC (Prevotella timonensis; isolate 601287 H) | MIC (Prevotella timonensis; isolate 601293 13) | MIC (Prevotella timonensis; isolate 601311 B) | MIC (Prevotella timonensis; isolate 601367 E) | MIC (Prevotella timonensis; isolate 601388 S) | MIC (Prevotella timonensis; isolate 601401 J) | MIC (Prevotella timonensis; isolate 601411 S)
0.03 µg/mL: MIC (Peptoniphilus harei; Peptoniphilus harei, isolate 601233V R) | MIC (Prevotella timonensis; isolate 601370 13)
0.06 µg/mL: MIC (Prevotella timonensis; isolate 601167 13)
5: Number of strains with indicated MIC (Atopobium vaginae; MIC 0.015 μg/ml)
0.00375 to 0.25 µg/mL: MIC Range (Atopobium vaginae; # tested 62)
0.0075 to 0.03 µg/mL: MIC Range (Mobiluncus all species; # tested 40)
0.00375 to 0.06 µg/mL: MIC Range (Prevotella timonensis; # tested 33)
43: Number of strains with indicated MIC (Atopobium vaginae; MIC 0.00375 μg/ml)
62 strains: number of Atopobium vaginae strains against which the agent had activity (Atopobium vaginae)
had activity: activity on Mobiluncus species (Mobiluncus all species)
1: Number of strains with indicated MIC (Peptoniphilus harei; MIC 0.00375 μg/ml) | Number of strains with indicated MIC (Peptoniphilus harei; MIC 0.03 μg/ml) | Number of strains with indicated MIC (Atopobium vaginae; MIC 0.06 μg/ml)
6: Number of strains with indicated MIC (Peptoniphilus harei; MIC 0.015 μg/ml)
12: Number of strains with indicated MIC (M. curtisii; MIC 0.015 μg/ml)
0.00375 to 0.03 µg/mL: MIC Range (Peptoniphilus harei; # tested 23)
15: Number of strains with indicated MIC (Peptoniphilus harei; MIC 0.0075 μg/ml)
10: Number of strains with indicated MIC (Atopobium vaginae; MIC 0.0075 μg/ml)
40 (100) μg/ml: Susceptible (Mobiluncus all species; number (%) of isolates, # tested 40)
